EP2710893A1, “Methods of treating autism spectrum disorders and compositions for same” (Theta Biomedical Consulting&development Co., Inc, priority 2009, dated 2011)

Key:
mast cells = experiment: Inhibition of mast cells; type: cell-based; conditions: Mast cell
[1] = tested on: brain blood vessel leakage; experiment: Evans blue extravasation (brain blood vessel leakage) in mice; type: in vivo
Description: Male BALB/6 mice (6 weeks old, Jackson Laboratories, Bar Harbor, ME) were injected in their tail vein with 0.2 ml of Evans blue (0.4%). Binding of Evans blue to the albumin found in the blood prevents Evans blue from escaping the circulation and constitutes a good marker from extravasation in brain parenchyma.
Brain blood vessel leakage was assessed with Evans blue extravasation at 2 hr following Evans blue and 30 min after intraperitoneal injection of NT. Mice were anesthetized with a single intraperitoneal injection of ketamine/xylazine ([…]), an intracardiac catheter was inserted in the left ventricle, blood was withdrawn, and 10 ml normal saline was administered intracardially to wash any Evans blue from the systemic circulation. The mice were then decapitated and the whole brain was removed. For brain extravasated Evans blue measurements, the brains were first weighed and the Evans blue was then extracted in 1 ml of N,N-dimethylformamide overnight at 55 °C and the optical density was measured at 620 nm using a PerkinElmer Luminescence Spectrophotometer (Perkin Elmer, Norwalk, CT). EB concentration was calculated using a standard curve and values were normalized to the tissue weight and expressed as arbitrary units/mg of tissue. Five animals per group were estimated to be sufficient for significant differences given the variability (<50%) observed. Results of Evans blue/mg tissue were expressed as mean ± SD of percent change from control. This statistical analysis was chosen because it permits the experimental results to be compared to their own control and avoids variability from experiment to experiment. Values were then compared using the non-parametric Mann-Whitney U test. Significance is denoted by p<0.05. In order to induce brain blood vessel leakage, the mice were either treated only with an intraperitoneal injection (0.5 ml) of NT (500 nmol/kg body weight) or first pretreated with the flavonoid luteolin (40 mg/kg body weight) mixed in olive kernel extract to permit solubilization and increased absorption of the lipid-soluble luteolin. The mice not treated with luteolin were pretreated the same way only with the vehicle in order to keep the conditions similar [olive kernel extract, obtained from Minerva Edible Oils, Athens, Greece (http://www.minerva.com.gr/)]. […] When the mice were treated with both IL-33 (1 microg/mouse) and NT, brain leakage was even greater (Fig. 3); IL-33 alone had no effect. Pretreatment with the same amount of luteolin as before inhibited brain blood vessel leakage by 50% (Fig. 3). Using more luteolin could inhibit the synergistic effect of IL-33 and NT.

O=c1c(O)c(-c2ccc(O)c(O)c2)oc2cc(O)cc(O)c12 [Quercetin]
inhibition at 10 µM (mast cells): 80%

O=c1cc(-c2ccc(O)c(O)c2)oc2cc(O)cc(O)c12 [luteolin]
inhibition of brain blood vessel leakage ([1]; Figure 3 legend, intraperitoneal luteolin 10 min prior to injection of IL-33 plus NT): inhibited
inhibition of brain blood vessel leakage ([1]; NT-induced leakage, pretreatment with luteolin 40 mg/kg body weight mixed in olive kernel extract): completely inhibited
inhibition of brain blood vessel leakage ([1]; leakage induced by IL-33 (1 microg/mouse) and NT, pretreatment with luteolin 40 mg/kg body weight): 50%

neurotensin [NT]
increase in brain blood vessel leakage ([1]; intraperitoneal injection of NT 500 nmol/kg body weight, Evans blue extravasation 30 min after NT, percent change from control): 150%
